Source: patent publication US10092492B2, “Cosmetic composition comprising spiculisporic acid and at least one surfactant” (L'OREAL, priority 2013, dated 2018)
“And” between values parts separate entries of the source, which are not always exact repeats. Equal values may be shown once. “Also recorded” adds a separate entry of the source.

Key:
[1] = Example 1: pH and aspect of S-acid solutions neutralized with NaOH (30%) or KOH (50%), stabilized at 4° C. and RT; format: physicochemical; parameters: key to aspect of the solution (precipitation mark): The marked solutions (*) correspond to precipitated solutions; conditions: for pH T4° C. 24 h / pH T4° C. 30 days / pH TRT 24 h / pH TRT 30 days / pH TRT t0: R1=2
Text: In order to neutralize spiculisporic acid (S-acid), two moles of base were used for one mole of S-acid, i.e., R1=2.
Increasing concentration ranges of S-acid from 1% to 10% were achieved, either with NaOH (solution at 30% m/m), or with KOH (solution at 50% m/m).
The solutions were made twice (A and B) in order to evaluate the reproducibility of the results. All the ranges of the neutralized solutions with both bases are limpid at t0 and the pH values obtained range from 5.19 to 6.79.
The marked solutions (*) correspond to precipitated solutions.

[2] = Example 2: aspect and pH of S-acid pre-solubilized with KOH (R1=2) in association with surfactants; format: physicochemical; conditions: for pH t0 RT / pH RT, 20 days after storage / pH T = 4° C., 20 days after storage: KOH R1=2
Text: Solutions, containing S-acid at 4% or 8% (neutralized with an amount of KOH calculated in order to obtain the di-potassium salt of S-acid, i.e., R1=2) and surfactants, were made.

[3] = Example 2: pH and macroscopic observation of S-acid neutralized with NaOH (R1=1.1) with surfactants, stored at 4° C.; format: physicochemical; conditions: for Macroscopic observation after 12 days after storage: stored in the dark at 4° C., listed as S-acid alone
Protocol: Solutions, containing S-acid at 4% or 8% (neutralized with an amount of NaOH calculated in order to obtain R1=1.1) and surfactants, were made, as shown in the table below:
The solutions were prepared according to the following procedure:
S-acid aqueous solution is prepared. The base is added under stirring. The resulting mixture is stirred at 40° C. Then the surfactant is added under stirring. The solution is then stored in the dark at 4° C.

[4] = cited from earlier work
[5] = KOH solution at 50%, S-acid 1%, A and B
[6] = KOH solution at 50%, S-acid 2%, A and B
[7] = NaOH solution at 30%, S-acid 1%, A and B
[8] = NaOH solution at 30%, S-acid 2%, A and B
[9] = S-acid 4% MA, surfactant 4% where present

pH T4° C. 24 h [1, 5]: 6.09 and 5.26
pH T4° C. 30 days [1, 5]: 5.86 and 5.39
pH TRT 24 h [1, 5]: 6.03 and 5.28
pH TRT 30 days [1, 5]: 5.69 and 5.18
pH TRT t0 [1, 5]: 5.93 and 5.22
pH T4° C. 24 h [1, 6]: 5.48 and 5.61
pH T4° C. 30 days [1, 6]: 5.46 and 5.53
pH TRT 24 h [1, 6]: 5.67 and 5.59
pH TRT 30 days [1, 6]: 5.39 and 5.59
pH TRT t0 [1, 6]: 5.4 and 5.19
aspect of the solution (precipitation mark) ([1]; KOH, S-acid 2%, 4° C. 24 h): *
aspect of the solution (precipitation mark) ([1]; KOH, S-acid 2%, 4° C. 30 days): *
aspect of the solution (precipitation mark) ([1]; KOH, S-acid 2%, RT 24 h): *
aspect of the solution (precipitation mark) ([1]; KOH, S-acid 2%, RT 30 days): *
pH T4° C. 24 h [1, 7]: 5.78 and 5.49
pH T4° C. 30 days [1, 7]: 5.69 and 5.41
pH TRT 24 h [1, 7]: 5.78 and 5.49
pH TRT 30 days [1, 7]: 5.59 and 5.42
pH TRT t0 ([1]; NaOH solution at 30%, S-acid 1%, duplicate solutions A and B): 5.66 and 5.37
pH T4° C. 24 h [1, 8]: 5.7 and 5.78
pH T4° C. 30 days [1, 8]: 5.72 and 5.69
pH TRT 24 h [1, 8]: 5.7 and 5.74
pH TRT 30 days [1, 8]: 5.64 and 5.49
pH TRT t0 ([1]; NaOH solution at 30%, S-acid 2%, duplicate solutions A and B): 5.64 and 5.6
aspect of the solution (precipitation mark) ([1]; NaOH, S-acid 2%, 4° C. 24 h): *
aspect of the solution (precipitation mark) ([1]; NaOH, S-acid 2%, 4° C. 30 days): *
aspect of the solution (precipitation mark) ([1]; NaOH, S-acid 2%, RT 30 days): *
stability of the solutions after 30 days at 4° C. ([1]; from 2% of S-acid, both bases (NaOH, KOH)): crystallization
pH t0 RT ([2]; S-acid 4% MA, surfactant 4% active material where present): 5.97
pH RT, 20 days after storage [2, 9]: 6.02
pH T = 4° C., 20 days after storage [2, 9]: 6.01
result after 20 days of storage at 4° C. (in words) ([2]; S-acid 4%, KOH R1=2, surfactant 4% where present): precipitation
pH RT, 20 days after storage ([2]; S-acid 8% MA, no surfactant): 6.47
pH T = 4° C., 20 days after storage ([2]; S-acid 8% MA, no surfactant): 6.47
pH t0 RT ([2]; S-acid 8% MA, no surfactant): 6.43
result after 20 days of storage at 4° C. (in words) ([2]; S-acid 8%, KOH R1=2, no surfactant): precipitation
pH t0 RT ([3]; S-acid 4% MA, NaOH R1=1.1): 4.89
pH t0 RT ([3]; S-acid 8% MA, NaOH): 5.11
SMILES: CCCCCCCCCCC(C(=O)O)C1(C(=O)O)CCC(=O)O1 (centres unmarked) [S-acid, 4,5-dicarboxy-4-pentadecanolide]
Macroscopic observation after 12 days after storage ([3]; S-acid 4% MA, NaOH R1=1.1): precipitation; also recorded: precipitate
Macroscopic observation after 12 days after storage ([3]; S-acid 8% MA, NaOH): precipitation; also recorded: precipitate
solubility in water at a high temperature ([4]; high temperature): partly soluble
solubility in ethanol ([4]; room temperature): soluble
solubility in fats ([4]; room temperature): insoluble
solubility in water ([4]; room temperature): insoluble
